Results: patent US5505922A, “Anesthetic pharmaceutical combination” (University of Maryland at Baltimore, priority 1995, dated 1996)
Read-outs that look alike come from different tables or passages of the source. Each block holds one molecule with its values, some of them ahead of it.

Tests used:
[1] = acutely, 250 mg per ml of lithium; cited from earlier work
[2] = test system: tooth pulps of the central incisors of rabbits; assay: In vivo electrically stimulated tooth pulp pain model (rabbit tooth pulp assay)
Description: To confirm the results of the in vitro experiments in vivo, an electrically stimulated tooth pulp pain model was used. The tooth pulps of the central incisors of rabbits were exposed using a high speed burr and dental drill.
Electrodes were inserted into the pulp chambers and the voltage required to elicit a lick/chew response was measured. The percentage analgesia was calculated from the following equation:
MPE=((TV-CV)/(10 V-CV))×100
wherein TV is the voltage after treatment; CV is the control voltage, and 10 V are the maximum volts applied.
The percent analgesia was recorded 0, 5, 10, 15, 30, 60, 120 and 180 minutes after injection.

[3] = test system: desheathed ferret vagus nerves (C fibers); assay: In vitro recording of electrically stimulated compound action potentials from desheathed ferret vagus nerves (depression of action potential); assay type: cell-based; settings: for IC50: read-out: ED50 (the source's name); for shift in the dose/response curve: lithium Lockes versus sodium Lockes, FIGS. 1 to 4; for in vitro ED50 reduction relative to control values: lithium-containing versus sodium Lockes vehicle
Description: To test if replacement of lithium ions for sodium ions reduced the required local anesthetic dose, an in vitro experiment was performed, wherein the electrically stimulated compound action potentials were recorded from desheathed ferret vagus nerves, which are an enriched source of C fibers.
The ferret vagus nerves were removed bilaterally and were desheathed under a Zeiss dissecting microscope with a magnification of 2.5X. A single desheathed nerve was then placed in a chamber interlaced with electrodes for stimulating and recording action potentials. The central section of the nerve passes through the central well containing either buffer or drug in buffer.
The stimulation voltage was adjusted to provide maximal action potential. The stimulus duration was 0.5 milliseconds. Stimulation and recording parameters were programmed, and stimuli were presented at 2 second intervals. Five successive action potentials were averaged and stored as an estimate of action potential activity each minute. The intervening […] action potential were discarded.
Control nerves were bathed in a 100% sodium Locke's solution, synthesized in the manner set forth in Synthesis Example 1 above. Experimental nerves were bathed in lithium Locke's solution, comprising 35 mol Eq. % lithium, 65 mol Eq. % sodium Locke's solution, synthesized in the manner set forth in Synthesis Example 2 above.
The electrical stimuli were applied to one end of the nerve, while on the other end, the resulting action potential propagation was measured using an oscilloscope and the recording computer. Varying doses of mepivacaine were administered to the nerves so that dose/response curves could be constructed under both ionic conditions.
Following a period of equilibration in a buffer where control recordings are made, the well was emptied and a molar concentration of a test anesthetic was added. Various molar concentrations of mepivacaine, an amide type local anesthetic (Sterling-Winthrop Research Institute, Rensselear, N.Y.), and procaine, an ester type local anesthetic (Sigma Chemical Co., St. Louis, Mo.) were tested in both sodium and lithium Locke's buffer vehicles, as described above.
Compound action potentials having two distinct peaks, labeled as A and C peaks, are observed and were recorded at 2 second intervals. Five consecutive action potentials were recorded for each one minute time period over 30 minutes. At 30 minutes, the anesthetic was removed and the chamber was perfused with buffer. Recording was continued during this 30 minute period. The averaged data, collected every 2 minutes, was then analyzed to determine the slope of the action potential, the height of the action potential, the area under the curve of the action potential and the conduction velocity. This was done for both the A and C peaks.
The data were then plotted as percent of control versus time. Other molar concentrations were administered from the dose where there was no effect on the A peak, and to a dose where the action potential was depressed to zero.
Inspection of the data allowed recording of the maximal observed effect for each of the concentrations studied. This observed maximum (or an asymptotic value derived from an appropriate equation) was used to generate log-probit linear regressions of the dose versus the effect. This is accomplished by conversion of the percent effect to the corresponding probit value, conversion of the dose to its log10 and fitting a first degree polynomial to the resultant data by the method of least squares.
The 95% confidence band was calculated and plotted for the data. From the equations of the best fit line and the confidence bands, doses estimated to produce 50, 90 and 95% depression of the four parameters were calculated for both the A and C peaks of the action potentials.
Table 1 was prepared using the results of each of the concentrations onsets (T 85%). […]

[4] = control (sodium Lockes) buffer vehicle
[5] = in the lithium-containing buffer vehicle

Compound: [Li] [lithium]
acute tolerability [1]: well tolerated

IC50 [3, 4]: 420 µM
IC50 [3, 5]: 270 µM
Compound: Cc1cccc(C)c1NC(=O)C1CCCCN1C (stereo not shown) [mepivacaine]
shift in the dose/response curves ([2]; lithium Lockes versus sodium Lockes, FIGS. 5 and 6): not parallel and demonstrated that the effect of lithium was most pronounced at lower concentrations
in vivo ED50 reduction relative to standard sodium Lockes vehicle ([2]; lithium Lockes versus standard sodium Lockes vehicle): reduced to one third of its value
ED50 ([2]; lithium present in the buffer vehicle): 0.69%
ED50 ([2]; without lithium (sodium Lockes)): 1.93%
shift in the dose/response curve [3]: not parallel and demonstrated that the effect of lithium was most pronounced at lower concentrations
in vitro ED50 reduction relative to control values [3]: reduced to half their control values

Compound: CCN(CC)CCOC(=O)c1ccc(N)cc1 [procaine]
IC50 [3, 4]: 540 µM
IC50 [3, 5]: 190 µM
shift in the dose/response curve [3]: not parallel and demonstrated that the effect of lithium was most pronounced at lower concentrations
in vitro ED50 reduction relative to control values [3]: reduced to half their control values
